In US10945932B2, “Prebiotic oral care compositions containing carboxylic acids” (COLGATE-PALMOLIVE COMPANY, priority 2013, dated 2021):
Read-outs that look alike come from different tables or passages of the source.

Legend:
[1] = test system: Streptococcus sanguinis; details: S sanguinis, BHI
Description: (§2) Late exponential growth phase liquid cultures were prepared by transferring the respective bacterium from blood agar plates to BHI and overnight incubation at 37° C. in an anaerobic atmosphere for A. viscosus, V. parvula, F. nucleatum, P. gingivalis, P. intermedia, T forsythia, A. naeslundii, and C. sputigena, and in a 5% CO2 environment for S. salivarius, S. sanguinis, S. mitis, A. actinomycetemcomitans, S. mutans, S. sobrinus and S. gordonii. Overnight cultures were transferred to BHI and adjusted to a concentration of 1×10^7 CFU/ml (colony forming units per ml) by measuring the optical density at 600 nm (OD600) (BioRad SmartSpec 3000). For each strain, 200 μl of the bacterial suspension was added to a 96-well plate containing 20 μl of the respective carboxylic acids. Final concentrations of the carboxylic acids were set to 5, 10, 20 and 25 μmol/ml. […] Plates were incubated as previously described.
(§3) For each combination of bacterium/carboxylic acid, and for each of their respective controls (i.e. the particular bacterium in the nutritionally rich medium with no carboxylic acid), the optical density was measured at 630 nm (OD630) at 0 h, 24 h and 48 h (Thermo Scientific Multiskan Ascent). Additionally, the OD630 for combinations of bacterium/carboxylic acid grown in a 5% CO2 environment were also measured every hour between 0 h and 9 h.
(§4) The experiment was carried out on three different days (thus providing 3 biological replicas) and on each day the experiment was carried out in quadruple (thus providing 4 technical replicas) for each combination of bacterium with carboxylic acid and for each control. For each day and for each combination, the average (mean) of the values obtained (as detailed above) for the four technical replicas was calculated to provide a single value for each combination on each day.

[2] = test system: Capnocytophaga sputigena; details: C sputigena, BHI
Description: as §2, §3, §4

[3] = test system: Capnocytophaga sputigena; test: Biofilm growth assay in BHI, crystal violet; assay type: cell-based; details: C sputigena
Description: (§1) Late exponential growth phase liquid cultures were prepared by transferring the respective bacterium from blood agar plates to BHI and overnight incubation at 37° C. in an anaerobic atmosphere for A. viscosus, V. parvula, F. nucleatum, P. gingivalis, P. intermedia, T. forsythia, A. naeslundii, and C. sputigena, and in a 5% CO2 environment for S. salivarius, S. sanguinis, S. mitis, A. actinomycetemcomitans, S. mutans, and S. gordonii. […] Additionally, for each bacterium tested, a background control, to correct for background staining, was added. This background control contained the bacterium tested and 0.03 weight % chlorhexidine, as an antiseptic. Plates were incubated as previously described. After 48 hrs the supernatant was removed from the wells of the plates. The wells were washed twice with 1×100 μL/PBS (phosphate buffered saline), fixed for 20 minutes with 96% vol. ethanol (96% vol. solution in water) and the biofilm retained at the bottom of the wells was stained with 1 weight % crystal violet (1 weight % solution in water). […] Quantification of the stained biofilm was performed by measuring the absorbance at 630 nm using a Multiskan Ascent microplate reader (Thermo Scientific).

[4] = test system: Streptococcus salivarius; test: Biofilm growth assay in BHI, crystal violet; assay type: cell-based; details: S salivarius
Description: as §1

[5] = test system: Streptococcus gordonii; test: Biofilm growth assay in BHI, crystal violet; assay type: cell-based; details: S gordonii
Description: as §1

[6] = test system: Aggregatibacter actinomycetemcomitans; test: Biofilm growth assay in BHI, crystal violet; assay type: cell-based; details: A actinomycetemcomitans
Description: as §1

[7] = test system: Tannerella forsythia; test: Biofilm growth assay in BHI, crystal violet; assay type: cell-based; details: T forsythia
Description: as §1

[8] = test system: Veillonella parvula; test: Biofilm growth assay in BHI, crystal violet; assay type: cell-based; details: V parvula
Description: as §1

[9] = test system: Streptococcus mutans; test: Biofilm growth assay in BHI, crystal violet; assay type: cell-based; details: S mutans
Description: as §1

[10] = test system: Streptococcus sanguinis; test: Biofilm growth assay in BHI, crystal violet; assay type: cell-based; details: S sanguinis
Description: as §1

[11] = test system: Fusobacterium nucleatum; test: Biofilm growth assay in BHI, crystal violet; assay type: cell-based; details: F nucleatum
Description: as §1

O=C(O)CCC(=O)O [Succinic acid, succinic acid]
extent of growth, maximal OD630 over 48 hr divided by maximal OD of control (control = 1) ([1]; 5 μmol/ml): 0.7980
extent of growth, maximal OD630 over 48 hr divided by maximal OD of control (control = 1) ([1]; 10 μmol/ml): 0.6726
extent of growth, maximal OD630 over 48 hr divided by maximal OD of control (control = 1) ([1]; 20 μmol/ml): 0.2724
extent of growth, maximal OD630 over 48 hr divided by maximal OD of control (control = 1) ([1]; 25 μmol/ml): 0.2132
extent of growth, maximal OD630 over 48 hr divided by maximal OD of control (control = 1) ([2]; 5 μmol/ml): 0.9743
extent of growth, maximal OD630 over 48 hr divided by maximal OD of control (control = 1) ([2]; 10 μmol/ml): 0.7668
extent of growth, maximal OD630 over 48 hr divided by maximal OD of control (control = 1) ([2]; 20 μmol/ml): 0.6198
extent of growth, maximal OD630 over 48 hr divided by maximal OD of control (control = 1) ([2]; 25 μmol/ml): 0.4571
biofilm growth, OD at 630 nm (crystal violet) at 48 hrs divided by OD of control (control = 1) ([3]; 5 μmol/ml): 2.0880
biofilm growth, OD at 630 nm (crystal violet) at 48 hrs divided by OD of control (control = 1) ([3]; 10 μmol/ml): 2.1577
biofilm growth, OD at 630 nm (crystal violet) at 48 hrs divided by OD of control (control = 1) ([3]; 20 μmol/ml): 0.2256
biofilm growth, OD at 630 nm (crystal violet) at 48 hrs divided by OD of control (control = 1) ([3]; 25 μmol/ml): 0.3202
biofilm growth, OD at 630 nm (crystal violet) at 48 hrs divided by OD of control (control = 1) ([4]; 5 μmol/ml): 3.7553
biofilm growth, OD at 630 nm (crystal violet) at 48 hrs divided by OD of control (control = 1) ([4]; 10 μmol/ml): 1.2358
biofilm growth, OD at 630 nm (crystal violet) at 48 hrs divided by OD of control (control = 1) ([4]; 20 μmol/ml): 0.6125
biofilm growth, OD at 630 nm (crystal violet) at 48 hrs divided by OD of control (control = 1) ([4]; 25 μmol/ml): 1.7869
biofilm growth, OD at 630 nm (crystal violet) at 48 hrs divided by OD of control (control = 1) ([5]; 5 μmol/ml): 2.3866
biofilm growth, OD at 630 nm (crystal violet) at 48 hrs divided by OD of control (control = 1) ([5]; 10 μmol/ml): 4.4978
biofilm growth, OD at 630 nm (crystal violet) at 48 hrs divided by OD of control (control = 1) ([5]; 20 μmol/ml): 1.6591
biofilm growth, OD at 630 nm (crystal violet) at 48 hrs divided by OD of control (control = 1) ([5]; 25 μmol/ml): 0.5512
biofilm growth, OD at 630 nm (crystal violet) at 48 hrs divided by OD of control (control = 1) ([6]; 5 μmol/ml): 0.6941
biofilm growth, OD at 630 nm (crystal violet) at 48 hrs divided by OD of control (control = 1) ([6]; 10 μmol/ml): 0.5093
biofilm growth, OD at 630 nm (crystal violet) at 48 hrs divided by OD of control (control = 1) ([6]; 20 μmol/ml): 0.0593
biofilm growth, OD at 630 nm (crystal violet) at 48 hrs divided by OD of control (control = 1) ([6]; 25 μmol/ml): 0.0581
biofilm growth, OD at 630 nm (crystal violet) at 48 hrs divided by OD of control (control = 1) ([7]; 5 μmol/ml): 0.3223
biofilm growth, OD at 630 nm (crystal violet) at 48 hrs divided by OD of control (control = 1) ([7]; 10 μmol/ml): 0.0000
biofilm growth, OD at 630 nm (crystal violet) at 48 hrs divided by OD of control (control = 1) ([7]; 20 μmol/ml): 0.0000
biofilm growth, OD at 630 nm (crystal violet) at 48 hrs divided by OD of control (control = 1) ([7]; 25 μmol/ml): 0.0000
biofilm growth, OD at 630 nm (crystal violet) at 48 hrs divided by OD of control (control = 1) ([8]; 5 μmol/ml): 0.9059
biofilm growth, OD at 630 nm (crystal violet) at 48 hrs divided by OD of control (control = 1) ([8]; 10 μmol/ml): 1.0118
biofilm growth, OD at 630 nm (crystal violet) at 48 hrs divided by OD of control (control = 1) ([8]; 20 μmol/ml): 1.1681
biofilm growth, OD at 630 nm (crystal violet) at 48 hrs divided by OD of control (control = 1) ([8]; 25 μmol/ml): 1.4334
biofilm growth, OD at 630 nm (crystal violet) at 48 hrs divided by OD of control (control = 1) ([9]; 5 μmol/ml): 0.0053
biofilm growth, OD at 630 nm (crystal violet) at 48 hrs divided by OD of control (control = 1) ([9]; 10 μmol/ml): 0.2498
biofilm growth, OD at 630 nm (crystal violet) at 48 hrs divided by OD of control (control = 1) ([9]; 20 μmol/ml): 1.9127
biofilm growth, OD at 630 nm (crystal violet) at 48 hrs divided by OD of control (control = 1) ([9]; 25 μmol/ml): 0.9686
biofilm growth, OD at 630 nm (crystal violet) at 48 hrs divided by OD of control (control = 1) ([10]; 5 μmol/ml): 3.3955
biofilm growth, OD at 630 nm (crystal violet) at 48 hrs divided by OD of control (control = 1) ([10]; 10 μmol/ml): 2.9778
biofilm growth, OD at 630 nm (crystal violet) at 48 hrs divided by OD of control (control = 1) ([10]; 20 μmol/ml): 1.7748
biofilm growth, OD at 630 nm (crystal violet) at 48 hrs divided by OD of control (control = 1) ([10]; 25 μmol/ml): 1.9952
biofilm growth, OD at 630 nm (crystal violet) at 48 hrs divided by OD of control (control = 1) ([11]; 5 μmol/ml): 2.7146
biofilm growth, OD at 630 nm (crystal violet) at 48 hrs divided by OD of control (control = 1) ([11]; 10 μmol/ml): 5.3887
